Experimental data as given in US10421765B2, “Tetrahydropyrido[4,3-d]pyrimidine inhibitors of ATR kinase” (Board of Regents, The University of Texas System, priority 2017, dated 2019).
pIC50: −log10 of the molar value. Like-named read-outs stand apart in the source and are kept apart here.

Tests used:
[1] = test system: ATR-driven phosphorylation of Chk1 kinase at Serine 345 in HT-29 colorectal adenocarcinoma cells; test: pCHK1 cellular assay (CHK1 p-Ser345 AlphaScreen SureFire); type: cell-based; details: Homo sapiens, HT-29, HT-29 cells, 4-nitroquinoline N-oxide 12 uM; read-out: Cell IC50 (pCHK1 IC50 values)
Procedure, shortened: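 HT-29 cells seeded overnight, treated with 1:3 serially diluted compound for 90 minutes at 37° C., then 12 uM (final) 4-nitroquinoline N-oxide for 120 minutes. Lysates read for Chk1 p-Ser345 by AlphaScreen SureFire; IC50 from four-parameter logistic fit, normalized to DMSO (max) and 5 uM ATR inhibitor (min).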

ATR/ATRIP complex = ATR/ATRIP complex (Homo sapiens (Human), UniProt Q13535); test: ATR/ATRIP enzymatic assay (Caliper-based); type: biochemical; details: FAM-labeled RAD17 peptide, ATP
Sequence of ATR/ATRIP complex (Q13535 whole entry): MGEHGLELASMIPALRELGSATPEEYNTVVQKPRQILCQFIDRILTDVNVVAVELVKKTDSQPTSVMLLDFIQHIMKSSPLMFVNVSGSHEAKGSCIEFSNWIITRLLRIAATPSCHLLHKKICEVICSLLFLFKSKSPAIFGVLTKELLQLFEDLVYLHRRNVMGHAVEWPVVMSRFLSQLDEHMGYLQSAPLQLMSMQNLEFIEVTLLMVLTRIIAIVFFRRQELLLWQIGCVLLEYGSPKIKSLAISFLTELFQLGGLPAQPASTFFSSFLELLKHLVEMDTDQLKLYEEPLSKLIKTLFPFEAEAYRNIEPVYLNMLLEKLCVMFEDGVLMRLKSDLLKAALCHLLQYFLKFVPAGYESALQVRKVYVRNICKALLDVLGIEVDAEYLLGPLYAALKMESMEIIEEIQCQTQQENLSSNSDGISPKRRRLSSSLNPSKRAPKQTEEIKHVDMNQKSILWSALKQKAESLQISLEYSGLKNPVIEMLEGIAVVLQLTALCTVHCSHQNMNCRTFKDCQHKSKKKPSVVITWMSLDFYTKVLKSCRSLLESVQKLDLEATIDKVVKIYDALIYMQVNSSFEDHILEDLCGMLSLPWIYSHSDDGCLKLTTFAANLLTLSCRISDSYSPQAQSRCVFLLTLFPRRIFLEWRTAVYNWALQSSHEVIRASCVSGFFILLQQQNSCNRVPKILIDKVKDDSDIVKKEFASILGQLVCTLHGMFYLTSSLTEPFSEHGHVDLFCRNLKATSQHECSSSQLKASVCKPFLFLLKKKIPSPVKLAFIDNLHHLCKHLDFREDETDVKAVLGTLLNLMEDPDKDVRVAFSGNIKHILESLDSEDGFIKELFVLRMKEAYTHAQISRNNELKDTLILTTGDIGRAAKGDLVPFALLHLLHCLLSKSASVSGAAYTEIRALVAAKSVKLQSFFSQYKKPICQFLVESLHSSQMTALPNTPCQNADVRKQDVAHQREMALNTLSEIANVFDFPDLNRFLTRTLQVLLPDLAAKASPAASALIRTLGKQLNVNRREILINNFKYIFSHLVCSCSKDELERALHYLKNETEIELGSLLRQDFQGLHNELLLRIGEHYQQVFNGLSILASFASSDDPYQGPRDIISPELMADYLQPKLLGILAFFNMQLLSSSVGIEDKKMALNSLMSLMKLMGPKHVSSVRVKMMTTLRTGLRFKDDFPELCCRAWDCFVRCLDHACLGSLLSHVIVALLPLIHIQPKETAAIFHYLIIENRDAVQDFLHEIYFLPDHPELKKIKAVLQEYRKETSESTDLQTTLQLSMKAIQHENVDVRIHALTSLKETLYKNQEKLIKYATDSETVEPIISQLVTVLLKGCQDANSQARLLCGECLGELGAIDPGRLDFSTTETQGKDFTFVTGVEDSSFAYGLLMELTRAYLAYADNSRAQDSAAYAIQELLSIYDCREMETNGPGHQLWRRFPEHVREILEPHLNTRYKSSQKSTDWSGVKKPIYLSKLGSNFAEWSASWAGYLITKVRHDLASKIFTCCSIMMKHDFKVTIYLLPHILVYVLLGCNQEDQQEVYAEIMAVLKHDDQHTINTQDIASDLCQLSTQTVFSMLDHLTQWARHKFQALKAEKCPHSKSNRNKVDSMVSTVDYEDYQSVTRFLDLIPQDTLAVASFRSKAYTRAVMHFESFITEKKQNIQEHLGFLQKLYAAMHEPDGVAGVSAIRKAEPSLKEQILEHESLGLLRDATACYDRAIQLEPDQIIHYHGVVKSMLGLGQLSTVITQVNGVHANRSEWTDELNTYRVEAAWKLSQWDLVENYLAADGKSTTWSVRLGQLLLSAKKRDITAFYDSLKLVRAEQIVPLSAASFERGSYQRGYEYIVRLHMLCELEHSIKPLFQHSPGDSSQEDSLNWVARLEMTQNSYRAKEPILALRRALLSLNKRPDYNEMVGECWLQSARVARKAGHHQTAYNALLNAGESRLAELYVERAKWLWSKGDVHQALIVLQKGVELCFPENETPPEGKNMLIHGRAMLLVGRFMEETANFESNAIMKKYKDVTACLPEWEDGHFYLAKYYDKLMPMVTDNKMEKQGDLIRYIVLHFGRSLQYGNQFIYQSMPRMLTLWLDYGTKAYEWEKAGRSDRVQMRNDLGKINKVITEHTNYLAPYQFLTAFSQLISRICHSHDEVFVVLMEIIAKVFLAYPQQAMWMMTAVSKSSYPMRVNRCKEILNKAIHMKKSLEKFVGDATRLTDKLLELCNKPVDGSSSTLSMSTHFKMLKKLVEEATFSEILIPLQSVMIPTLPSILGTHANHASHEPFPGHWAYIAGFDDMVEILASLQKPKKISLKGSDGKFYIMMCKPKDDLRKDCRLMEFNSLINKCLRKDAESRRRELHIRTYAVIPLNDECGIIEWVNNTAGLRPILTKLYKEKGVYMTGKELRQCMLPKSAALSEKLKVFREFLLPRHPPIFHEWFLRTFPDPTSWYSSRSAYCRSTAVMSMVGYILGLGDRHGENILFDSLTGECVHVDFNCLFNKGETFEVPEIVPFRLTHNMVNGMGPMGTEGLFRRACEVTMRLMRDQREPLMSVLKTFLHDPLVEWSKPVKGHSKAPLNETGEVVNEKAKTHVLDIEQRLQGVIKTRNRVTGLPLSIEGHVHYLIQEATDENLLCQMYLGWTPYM
Sequence of ATR/ATRIP complex (Q8WXE1 whole entry partner): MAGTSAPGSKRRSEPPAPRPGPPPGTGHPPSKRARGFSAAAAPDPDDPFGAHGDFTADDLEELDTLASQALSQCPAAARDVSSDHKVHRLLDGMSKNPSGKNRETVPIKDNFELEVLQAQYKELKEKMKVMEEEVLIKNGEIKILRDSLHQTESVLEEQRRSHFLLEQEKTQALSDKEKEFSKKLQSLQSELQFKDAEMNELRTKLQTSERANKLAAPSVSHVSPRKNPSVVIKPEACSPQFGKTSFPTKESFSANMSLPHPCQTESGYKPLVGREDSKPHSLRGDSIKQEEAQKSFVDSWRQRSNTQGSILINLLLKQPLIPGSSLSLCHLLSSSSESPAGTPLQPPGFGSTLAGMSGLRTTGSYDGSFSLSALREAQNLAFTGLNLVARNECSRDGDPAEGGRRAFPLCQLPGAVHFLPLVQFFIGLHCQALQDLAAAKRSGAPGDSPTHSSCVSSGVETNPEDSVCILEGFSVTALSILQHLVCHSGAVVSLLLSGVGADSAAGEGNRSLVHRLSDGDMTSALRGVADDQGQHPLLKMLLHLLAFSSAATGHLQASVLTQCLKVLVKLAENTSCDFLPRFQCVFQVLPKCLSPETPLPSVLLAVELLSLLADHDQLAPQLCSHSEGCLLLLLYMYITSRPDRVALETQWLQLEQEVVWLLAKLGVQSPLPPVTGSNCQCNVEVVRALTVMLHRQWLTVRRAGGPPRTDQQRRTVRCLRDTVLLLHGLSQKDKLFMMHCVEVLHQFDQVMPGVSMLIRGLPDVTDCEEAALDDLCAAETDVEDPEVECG
Procedure, shortened: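 FLAG-TEV-ATR/His6-ATRIP co-expressed in HEK293 and anti-FLAG purified. Compound preincubated 30 min at 28 °C with enzyme (2x solution 4 nM), then FAM-RAD17 peptide (2x solution 10 uM, 2 μM ATP) added for 6 h at 28 °C; HEPES pH 8, 10 mM MnCl2. Caliper conversion read-out, IC50 from four-parameter fit.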

[2] = read-out: ATR/ATRIP Enzyme IC50
[3] = estimated range, read-out: ATR/ATRIP Enzyme IC50 (estimated class)

Q: What does the source list for C[C@@H]1Cc2ncnc(N3CCC(NS(C)(=O)=O)CC3)c2CN1c1cc(Cl)nc2[nH]ccc12 [Example 29, N-{1-[(7R)-6-{6-chloro-1H-pyrrolo[2,3-b]pyridin-4-yl}-7-methyl-5H,6H,7H,8H-pyrido [4,3-d]pyrimidin-4-yl]piperidin-4-yl}methanesulfonamide]?
A: pIC50 [1]: 7.89; pIC50 (ATR/ATRIP complex; [2]): 6.92

Q: C[C@@H]1Cc2ncnc(N3CC[C@H](S(C)(=O)=O)C3)c2CN1c1cc(Cl)nc2[nH]ccc12 [Example 86, (R)-6-(6-chloro-1H-pyrrolo[2,3-b]pyridin-4-yl)-7-methyl-4-((S)-3-(methylsulfonyl)-pyrrolidin-1-yl)-5,6,7,8-tetrahydropyrido[4,3-d]-pyrimidine] was tested. Which pIC50 [1] did it give?
A: 7.29

Q: And the pIC50 (ATR/ATRIP complex; [2])?
A: 6.48

Q: How did the pIC50 [1] turn out when CCS(=O)(=O)N1CCCC(c2ncnc3c2CN(c2cc(Cl)nc4[nH]ccc24)[C@H](C)C3)C1 (stereo partly drawn) [Example 24, 3-[(7R)-6-{6-chloro-1H-pyrrolo[2,3-b]pyridin-4-yl}-7-methyl-5H,6H,7H,8H-pyrido[4,3-d]pyrimidin-4-yl]-1-(ethanesulfonyl)-piperidine] was run?
A: 6.55

Q: What about the pIC50 (ATR/ATRIP complex; [3]) of the same compound?
A: 5.00 to 6.00

Q: How did the pIC50 [1] turn out when C[C@@H]1Cc2ncnc([C@H]3CCCN(S(C)(=O)=O)C3)c2CN1c1ccnc2[nH]ccc12 [Example 50b, (R)-7-methyl-4-((S)-1-(methylsulfonyl)piperidin-3-yl)-6-(1H-pyrrolo[2,3-b]pyridin-4-yl)-5,6,7,8-tetrahydropyrido[4,3-d]pyrimidine] was run?
A: 6.24

Q: What about the pIC50 (ATR/ATRIP complex; [2]) of the same compound?
A: 5.32

Q: With C[C@@H]1Cc2ncnc(N3CCN(S(C)(=O)=O)C(C)(C)C3)c2CN1c1cc(Cl)nc2[nH]ccc12 [Example 21, 4-[(7R)-6-{6-chloro-1H-pyrrolo[2,3-b]pyridin-4-yl}-7-methyl-5H,6H,7H,8H-pyrido[4,3-d]pyrimidin-4-yl]-1-methanesulfonyl-2,2-dimethylpiperazine] as the compound, how does the pIC50 [1] read?
A: 7.24

Q: What about the pIC50 (ATR/ATRIP complex; [3]) of the same compound?
A: 5.00 to 6.00

Q: What does the source list for C[C@@H]1Cc2ncnc(C3=C[C@@H]4CC[C@H](C3)N4S(C)(=O)=O)c2CN1c1cc(Cl)nc2[nH]ccc12 [Example 60, (R)-6-(6-chloro-1H-pyrrolo[2,3-b]pyridin-4-yl)-7-methyl-4-((1S,5R)-8-(methylsulfonyl)-8-azabicyclo[3.2.1]oct-2-en-3-yl)-5,6,7,8-tetra-hydropyrido[4,3-d]-pyrimidine]?
A: pIC50 [1]: 7.66; pIC50 (ATR/ATRIP complex; [2]): 7.18

Q: How did the pIC50 [1] turn out when C[C@@H]1Cc2ncnc(N3CC4CCC(C3)C4NS(C)(=O)=O)c2CN1c1ccnc2[nH]ccc12 (stereo partly drawn) [Example 69, N-(3-((R)-7-methyl-6-(1H-pyrrolo[2,3-b]-pyridin-4-yl)-5,6,7,8-tetrahydropyrido[4,3-d]-pyrimidin-4-yl)-3-aza-bicyclo[3.2.1]octan-8-yl)-methanesulfonamide] was run?
A: 7.32

Q: And the pIC50 (ATR/ATRIP complex; [2])?
A: 6.55

Q: With C[C@@H]1Cc2ncnc(N3CC(O)C3)c2CN1c1cc(Cl)nc2[nH]ccc12 [Example 77, (R)-1-(6-(6-chloro-1H-pyrrolo[2,3-b]pyridin-4-yl)-7-methyl-5,6,7,8-tetrahydropyrido[4,3-d]-pyrimidin-4-yl)azetidin-3-ol] as the compound, how does the pIC50 [1] read?
A: 7.68

Q: And the pIC50 (ATR/ATRIP complex; [2])?
A: 6.49

Q: How did the pIC50 [1] turn out when C[C@@H]1Cc2ncnc(C3CCN(S(C)(=O)=O)CC3)c2CN1c1cnc2cn[nH]c2c1 [Example 89, (R)-7-methyl-4-(1-(methylsulfonyl)piperidin-4-yl)-6-(1H-pyrazolo-[4,3-b]pyridin-6-yl)-5,6,7,8-tetrahydro-pyrido[4,3-d]pyrimidine] was run?
A: 5.13

Q: What about the pIC50 (ATR/ATRIP complex; [2]) of the same compound?
A: 6.86
